In US20090155339A1, “Biocompatible Antimicrobial Filament Material” (AESCULAP AG & CO. KG, priority 2005, published 2009):

System: L929 cells (DSM ACC2, mouse fibroblasts)
Test: Cytotoxicity of PHMB-HCl coated thread extracts, growth inhibition (BCA Assay method)
Format: cell-based
Conditions: positive control 7.5% v/v DMSO, 72 h
Experimental: The test was carried out in accordance with the standard EN ISO/IEC 17025. The thread pieces were extracted in the absence of light with the DMEM-FBS cell culture medium at 37±2° C. for 7 days. The absorbed DMEM-FBS was made up to a volume such that the surface/volume ratio was 9 cm^2/ml. As a negative control, DMEM-FBS was incubated at 37±2° C. for 7 days without test material. 7.5% v/v DMSO was used as positive control. Extracts and negative controls were diluted in five steps with DMEM-FBS solution (dilution ratio 2:3). 100 μl of the dilute solutions of the extracts and of the negative controls and also 100 μl of the positive controls were added in triplicate to wells in a […]. Thereafter, 50 μl of a freshly prepared cell suspension (7.5×10^4 cells/ml) were added to all wells except those used for background determination. The final concentrations of the extracts were accordingly 66.7%, 44.5%, 29.6%, 19.8%, 13.2% and 8.8% v/v. The plates were then incubated at 37±2° C. in humidified air (5% CO2/95% air) for 72±2 hours. Thereafter, the protein content of the samples was determined calorimetrically at a wavelength of 550 nm (BCA Assay method). The test organisms used were L929 cells (DSM ACC2, mouse fibroblasts, clone of the L strand). […] FBS and P/S from Biochrom (Berlin) and BCA protein quantification kit from Interchim (France).

Structure (SMILES): C[S+](C)[O-] [Positive control, DMSO]
- Growth inhibition: 81%
